The source of these data is article PMC5218480 (PLoS ONE, 2017).

The test has as its system MV-4-11 cells. As to the kind of experiment: Gene expression microarray analysis (Affymetrix PrimeView) and GSEA. The test is classed as cell-based, human. More on the design: RFU PODN (11730768_x_at) / Fold change /veh PODN (11730768_x_at) / RFU LINC00158 (11744669_a_at) / Fold change /veh LINC00158 (11744669_a_at) / RFU DUSP10 (11751237_a_at) / Fold change /veh DUSP10 (11751237_a_at) / RFU ID3 (11757404_x_at) / Fold change /veh ID3 (11757404_x_at) / RFU PLEKHG5 (11737974_s_at) / Fold change /veh PLEKHG5 (11737974_s_at) / RFU LRRC4B (11730491_at) / Fold change /veh LRRC4B (11730491_at) / RFU GIMAP4 (11747438_a_at) / Fold change /veh GIMAP4 (11747438_a_at) / RFU KRT8 (11758183_x_at) / Fold change /veh KRT8 (11758183_x_at) / RFU CNN1 (11734310_a_at) / Fold change /veh CNN1 (11734310_a_at) / RFU VPS37D (11726825_at) / Fold change /veh VPS37D (11726825_at) / RFU C10orf10 (11716522_x_at) / Fold change /veh C10orf10 (11716522_x_at) / RFU KIR2DL2 /// KIR2DL4 /// KIR2DL5A /// KIR2DL5B /// KIR2DS1 /// KIR2DS2 /// KIR2DS3 /// KIR2DS4 /// KIR3DL3 /// KIR3DL3 /// KIR3DS1 (11738374_at) / Fold change /veh KIR2DL2 /// KIR2DL4 /// KIR2DL5A /// KIR2DL5B /// KIR2DS1 /// KIR2DS2 /// KIR2DS3 /// KIR2DS4 /// KIR3DL3 /// KIR3DL3 /// KIR3DS1 (11738374_at) / RFU C1QL1 (11718748_at) / Fold change /veh C1QL1 (11718748_at) / RFU TMPRSS4 (11747572_a_at) / Fold change /veh TMPRSS4 (11747572_a_at) / RFU HAMP (11756126_x_at) / Fold change /veh HAMP (11756126_x_at) / RFU RNFT2 (11725882_a_at) / Fold change /veh RNFT2 (11725882_a_at) / RFU NR4A2 (11747474_a_at) / Fold change /veh NR4A2 (11747474_a_at) / RFU ABCC12 (11746883_a_at) / Fold change /veh ABCC12 (11746883_a_at) / RFU TMEM136 (11760407_x_at) / Fold change /veh TMEM136 (11760407_x_at) / RFU CLDN22 /// WWC2 (11732394_at) / Fold change /veh CLDN22 /// WWC2 (11732394_at) / RFU HLA-DPB1 (11760878_x_at) / Fold change /veh HLA-DPB1 (11760878_x_at) / RFU SPINT1 (11716480_a_at) / Fold change /veh SPINT1 (11716480_a_at) / RFU GAP43 (11754022_s_at) / Fold change /veh GAP43 (11754022_s_at) / RFU A4GNT (11735810_at) / Fold change /veh A4GNT (11735810_at) / RFU PRB3 (11715151_x_at) / Fold change /veh PRB3 (11715151_x_at) / RFU TUBB4B (11761932_at) / Fold change /veh TUBB4B (11761932_at) / RFU CAPN14 (11732068_a_at) / Fold change /veh CAPN14 (11732068_a_at) / RFU TMCC2 (11721928_a_at) / Fold change /veh TMCC2 (11721928_a_at) / RFU IRGQ (11745062_a_at) / Fold change /veh IRGQ (11745062_a_at) / RFU FAM174B (11720279_a_at) / Fold change /veh FAM174B (11720279_a_at) / RFU TMPRSS4 (11748680_a_at) / Fold change /veh TMPRSS4 (11748680_a_at) / RFU FAM212B (11763350_a_at) / Fold change /veh FAM212B (11763350_a_at) / RFU PLEKHG5 (11743358_a_at) / Fold change /veh PLEKHG5 (11743358_a_at) / RFU ZSCAN30 (11745921_a_at) / Fold change /veh ZSCAN30 (11745921_a_at) / RFU CMKLR1 (11741424_a_at) / Fold change /veh CMKLR1 (11741424_a_at) / RFU LOC101060620 /// MAPK8IP1 (11723275_at) / Fold change /veh LOC101060620 /// MAPK8IP1 (11723275_at) / RFU SPTSSB (11747773_x_at) / Fold change /veh SPTSSB (11747773_x_at) / RFU PRSS12 (11739890_at) / Fold change /veh PRSS12 (11739890_at) / RFU BIN1 (11741810_x_at) / Fold change /veh BIN1 (11741810_x_at) / RFU WNT11 (11732464_a_at) / Fold change /veh WNT11 (11732464_a_at) / RFU C10orf10 (11716521_a_at) / Fold change /veh C10orf10 (11716521_a_at) / RFU C5orf56 (11738089_at) / Fold change /veh C5orf56 (11738089_at) / RFU CYB561 (11721691_x_at) / Fold change /veh CYB561 (11721691_x_at) / RFU ANKRD19P (11752326_a_at) / Fold change /veh ANKRD19P (11752326_a_at) / RFU OR2T12 /// OR2T33 /// OR2T8 (11738714_s_at) / Fold change /veh OR2T12 /// OR2T33 /// OR2T8 (11738714_s_at) / RFU VCAN (11748164_a_at) / Fold change /veh VCAN (11748164_a_at) / RFU JSRP1 (11732532_at) / Fold change /veh JSRP1 (11732532_at) / RFU KRTAP10-11 (11738290_x_at) / Fold change /veh KRTAP10-11 (11738290_x_at) / RFU MYO3A (11730013_a_at) / Fold change /veh MYO3A (11730013_a_at) / RFU EBF3 (11725865_a_at) / Fold change /veh EBF3 (11725865_a_at) / RFU CAMK2N1 (11719241_x_at) / Fold change /veh CAMK2N1 (11719241_x_at) / RFU C5orf56 (11738088_a_at) / Fold change /veh C5orf56 (11738088_a_at) / RFU OLFML3 (11715873_a_at) / Fold change /veh OLFML3 (11715873_a_at) / RFU LOC100653217 /// NTM (11731650_a_at) / Fold change /veh LOC100653217 /// NTM (11731650_a_at) / RFU MAPK11 (11762145_a_at) / Fold change /veh MAPK11 (11762145_a_at) / RFU FIZ1 (11724087_x_at) / Fold change /veh FIZ1 (11724087_x_at) / RFU OASL (11726364_x_at) / Fold change /veh OASL (11726364_x_at) / RFU SOX15 (11748057_x_at) / Fold change /veh SOX15 (11748057_x_at) / RFU CD79A (11719716_a_at) / Fold change /veh CD79A (11719716_a_at) / RFU HIST1H1D (11736915_at) / Fold change /veh HIST1H1D (11736915_at) / RFU CASKIN2 (11723855_a_at) / Fold change /veh CASKIN2 (11723855_a_at) / RFU LOC730098 (11760151_x_at) / Fold change /veh LOC730098 (11760151_x_at) / RFU OR4N2 (11742367_at) / Fold change /veh OR4N2 (11742367_at) / RFU PRRT2 (11749266_a_at) / Fold change /veh PRRT2 (11749266_a_at) / RFU SNX32 (11753110_a_at) / Fold change /veh SNX32 (11753110_a_at) / RFU CDHR5 (11726645_a_at) / Fold change /veh CDHR5 (11726645_a_at) / RFU RCAN1 (11760418_a_at) / Fold change /veh RCAN1 (11760418_a_at) / RFU FAM167A (11723789_a_at) / Fold change /veh FAM167A (11723789_a_at) / RFU FAM26E (11764081_at) / Fold change /veh FAM26E (11764081_at) / RFU ISYNA1 (11749810_s_at) / Fold change /veh ISYNA1 (11749810_s_at) / RFU ACY1 (11761880_at) / Fold change /veh ACY1 (11761880_at) / RFU 11764098_at / Fold change /veh 11764098_at / RFU SAMD14 (11745864_x_at) / Fold change /veh SAMD14 (11745864_x_at) / RFU NPB (11741838_a_at) / Fold change /veh NPB (11741838_a_at) / RFU TMPRSS6 (11731388_a_at) / Fold change /veh TMPRSS6 (11731388_a_at) / RFU KRTAP10-2 (11738614_at) / Fold change /veh KRTAP10-2 (11738614_at) / RFU ARHGAP8 /// PRR5-ARHGAP8 (11727945_x_at) / Fold change /veh ARHGAP8 /// PRR5-ARHGAP8 (11727945_x_at) / RFU KRTAP5-7 /// NADSYN1 (11734609_at) / Fold change /veh KRTAP5-7 /// NADSYN1 (11734609_at) / RFU RASL12 (11751679_a_at) / Fold change /veh RASL12 (11751679_a_at) / RFU CDKN2B (11736163_a_at) / Fold change /veh CDKN2B (11736163_a_at) / RFU PRF1 (11729649_at) / Fold change /veh PRF1 (11729649_at) / RFU, ZNF638 /// ZNF638-IT1 / Fold change vs veh, ZNF638 /// ZNF638-IT1 / RFU, PANK3 / Fold change vs veh, PANK3 / RFU, SH3YL1 / Fold change vs veh, SH3YL1 / RFU, ZEB2 / Fold change vs veh, ZEB2 / RFU, NRIP1 / Fold change vs veh, NRIP1 / RFU, PTTG1IP / Fold change vs veh, PTTG1IP / RFU, CAPN2 / Fold change vs veh, CAPN2 / RFU, MED14 / Fold change vs veh, MED14 / RFU, SNORA58 / Fold change vs veh, SNORA58 / RFU, C1orf63 / Fold change vs veh, C1orf63 / RFU, LRRFIP1 / Fold change vs veh, LRRFIP1 / RFU, NDUFAF7 / Fold change vs veh, NDUFAF7 / RFU, SLC12A2 / Fold change vs veh, SLC12A2 / RFU, IBTK / Fold change vs veh, IBTK / RFU, ESF1 / Fold change vs veh, ESF1 / Fold change vs veh, TMEM50B / RFU, TAOK1 / Fold change vs veh, TAOK1 / RFU, ACBD3 / Fold change vs veh, ACBD3 / RFU, TMA16 / Fold change vs veh, TMA16 / RFU, RWDD3 / Fold change vs veh, RWDD3 / RFU, BCAT1 / Fold change vs veh, BCAT1 / RFU, EDEM3 / Fold change vs veh, EDEM3 / RFU, TMEM33 / Fold change vs veh, TMEM33 / RFU, WDR75 / Fold change vs veh, WDR75 / RFU, AHCTF1 / Fold change vs veh, AHCTF1 / RFU, TFRC / Fold change vs veh, TFRC / RFU, ZDHHC17 / Fold change vs veh, ZDHHC17 / RFU, NOM1 / Fold change vs veh, NOM1 / RFU, ARL8B / Fold change vs veh, ARL8B / RFU, ZBTB11 / Fold change vs veh, ZBTB11 / RFU, TAMM41 / Fold change vs veh, TAMM41 / RFU, KIAA1704 /// LOC100996395 / Fold change vs veh, KIAA1704 /// LOC100996395 / RFU, ING1 / Fold change vs veh, ING1 / RFU, TRMT61B / Fold change vs veh, TRMT61B / RFU, FUBP3 / Fold change vs veh, FUBP3 / RFU, TP53 / Fold change vs veh, TP53 / RFU, TNKS2 / Fold change vs veh, TNKS2 / RFU, ZFP14 / Fold change vs veh, ZFP14 / RFU, ACTR2 / Fold change vs veh, ACTR2 / RFU, PPP3R1 / Fold change vs veh, PPP3R1 / RFU, PIK3R1 / Fold change vs veh, PIK3R1 / RFU, HNRNPA1 / Fold change vs veh, HNRNPA1 / RFU, RNF170 / Fold change vs veh, RNF170 / RFU, ZNF28 / Fold change vs veh, ZNF28 / RFU, RNGTT / Fold change vs veh, RNGTT / RFU, OGT / Fold change vs veh, OGT / RFU, BRD1 / Fold change vs veh, BRD1 / RFU, MARS / Fold change vs veh, MARS / RFU, ZNF655 / Fold change vs veh, ZNF655 / RFU, FAHD1 / Fold change vs veh, FAHD1 / RFU, BDP1 / Fold change vs veh, BDP1 / RFU, LRRCC1 / Fold change vs veh, LRRCC1 / RFU, ARID1A / Fold change vs veh, ARID1A / RFU, ZNF146 / Fold change vs veh, ZNF146 / RFU, ZNF330 / Fold change vs veh, ZNF330 / RFU, GPN3 / Fold change vs veh, GPN3 / RFU, C9orf123 / Fold change vs veh, C9orf123 / RFU, N4BP2L2 / Fold change vs veh, N4BP2L2 / RFU, ARFIP1 / Fold change vs veh, ARFIP1 / RFU, FAM179B / Fold change vs veh, FAM179B / RFU, BCL10 / Fold change vs veh, BCL10 / RFU, UHRF1BP1L / Fold change vs veh, UHRF1BP1L / RFU, BET1 / Fold change vs veh, BET1 / RFU, CNOT2 / Fold change vs veh, CNOT2 / RFU, ZNF268 / Fold change vs veh, ZNF268 / Fold change vs veh, ZNF507 / RFU, DGCR2 / Fold change vs veh, DGCR2 / RFU, WDSUB1 / Fold change vs veh, WDSUB1 / Fold change vs veh, HSP90B1 /// MIR3652 / RFU, ADSS / Fold change vs veh, ADSS / RFU, GK / Fold change vs veh, GK / RFU, ZNF148 / Fold change vs veh, ZNF148 / RFU, TAF9 / Fold change vs veh, TAF9 / RFU, SLC1A5 / Fold change vs veh, SLC1A5 / RFU, SLMO2 / Fold change vs veh, SLMO2 / RFU, ABCC4 / Fold change vs veh, ABCC4 / RFU, LOC101060439 /// RAP1B / Fold change vs veh, LOC101060439 /// RAP1B / RFU, RFX7 / Fold change vs veh, RFX7 / RFU, GTPBP10 / Fold change vs veh, GTPBP10 / RFU, CNEP1R1 / Fold change vs veh, CNEP1R1 / RFU, BIVM-ERCC5 /// ERCC5 / Fold change vs veh, BIVM-ERCC5 /// ERCC5 / RFU, ILF3 / Fold change vs veh, ILF3 / RFU 11762660_at / Fold change /veh 11762660_at / RFU VCAN (11757783_s_at) / Fold change /veh VCAN (11757783_s_at) / RFU DDX43 (11728927_at) / Fold change /veh DDX43 (11728927_at) / RFU KRT8 (11758188_x_at) / Fold change /veh KRT8 (11758188_x_at) / RFU NKD1 (11759106_at) / Fold change /veh NKD1 (11759106_at) / RFU SRD5A1 (11742802_a_at) / Fold change /veh SRD5A1 (11742802_a_at) / RFU TPSAB1 /// TPSB2 (11721975_s_at) / Fold change /veh TPSAB1 /// TPSB2 (11721975_s_at) / RFU GSTM3 (11746129_a_at) / Fold change /veh GSTM3 (11746129_a_at) / RFU IL23R (11737362_x_at) / Fold change /veh IL23R (11737362_x_at) / RFU TMEM51 (11727254_a_at) / Fold change /veh TMEM51 (11727254_a_at) / RFU PIWIL2 (11732686_x_at) / Fold change /veh PIWIL2 (11732686_x_at) / RFU ORM1 (11744905_x_at) / Fold change /veh ORM1 (11744905_x_at) / RFU CCDC152 (11743942_at) / Fold change /veh CCDC152 (11743942_at) / RFU ECM1 (11717891_a_at) / Fold change /veh ECM1 (11717891_a_at) / RFU IL23R (11748794_a_at) / Fold change /veh IL23R (11748794_a_at) / RFU TNFAIP8L3 (11732012_x_at) / Fold change /veh TNFAIP8L3 (11732012_x_at) / RFU MBOAT4 (11741988_at) / Fold change /veh MBOAT4 (11741988_at) / RFU 11764193_at / Fold change /veh 11764193_at / RFU TMEM53 (11763286_at) / Fold change /veh TMEM53 (11763286_at) / RFU MAGEB2 (11727129_at) / Fold change /veh MAGEB2 (11727129_at) / RFU TMEM200A (11744735_a_at) / Fold change /veh TMEM200A (11744735_a_at) / RFU CCDC152 (11751479_a_at) / Fold change /veh CCDC152 (11751479_a_at) / RFU FAM211A (11726209_a_at) / Fold change /veh FAM211A (11726209_a_at) / RFU RGS16 (11746705_a_at) / Fold change /veh RGS16 (11746705_a_at) / RFU VCAN (11755009_s_at) / Fold change /veh VCAN (11755009_s_at) / RFU RHOB (11743442_s_at) / Fold change /veh RHOB (11743442_s_at) / RFU RGS16 (11720943_a_at) / Fold change /veh RGS16 (11720943_a_at) / RFU RGS16 (11720944_at) / Fold change /veh RGS16 (11720944_at) / RFU, VPS4B / Fold change vs veh, VPS4B / RFU, CREB1 / Fold change vs veh, CREB1 / RFU, DNAJC13 / Fold change vs veh, DNAJC13 / RFU, GNAQ / Fold change vs veh, GNAQ / RFU, CDK5R1 / Fold change vs veh, CDK5R1 / RFU, ZRANB3 / Fold change vs veh, ZRANB3 / RFU, CUL4A / Fold change vs veh, CUL4A / RFU, CCNY / Fold change vs veh, CCNY / RFU, UFL1 / Fold change vs veh, UFL1 / RFU, COG3 / Fold change vs veh, COG3 / RFU, DIAPH2 / Fold change vs veh, DIAPH2 / RFU, SKA2 / Fold change vs veh, SKA2 / RFU, AFF3 / Fold change vs veh, AFF3 / RFU, LMF1 / Fold change vs veh, LMF1 / RFU, IPO11 / Fold change vs veh, IPO11 / RFU, DFFB / Fold change vs veh, DFFB / RFU, FOXP1 / Fold change vs veh, FOXP1 / RFU, CARD8 / Fold change vs veh, CARD8 / RFU, STRN3 / Fold change vs veh, STRN3 / RFU, ADK / Fold change vs veh, ADK / RFU, RASSF2 / Fold change vs veh, RASSF2 / RFU, WIPF1 / Fold change vs veh, WIPF1 / RFU, LARP1B / Fold change vs veh, LARP1B / RFU, RASA1 / Fold change vs veh, RASA1 / RFU, RB1 / Fold change vs veh, RB1 / RFU, PPFIA1 / Fold change vs veh, PPFIA1 / RFU, MAT2A / Fold change vs veh, MAT2A / RFU, CCT5 / Fold change vs veh, CCT5 / RFU, WDR92 / Fold change vs veh, WDR92 / RFU, CUX1 / Fold change vs veh, CUX1 / RFU, TTC7A / Fold change vs veh, TTC7A / RFU, TMEM135 / Fold change vs veh, TMEM135 / RFU, DEPTOR / Fold change vs veh, DEPTOR / RFU, CPM / Fold change vs veh, CPM / RFU, DNAJB6 / Fold change vs veh, DNAJB6 / RFU, CACNA2D3 / Fold change vs veh, CACNA2D3 / RFU, DTX4 / Fold change vs veh, DTX4 / RFU, TFCP2 / Fold change vs veh, TFCP2 / RFU, GMCL1 /// GMCL1P1 / Fold change vs veh, GMCL1 /// GMCL1P1 / RFU, AEBP2 / Fold change vs veh, AEBP2 / RFU, SNHG1 /// SNORD22 /// SNORD25 /// SNORD26 /// SNORD27 /// SNORD28 /// SNORD29 /// SNORD31 / Fold change vs veh, SNHG1 /// SNORD22 /// SNORD25 /// SNORD26 /// SNORD27 /// SNORD28 /// SNORD29 /// SNORD31 / Fold change (Aza/veh), C12orf56 (ProbeSet 11735607_a_at) / Fold change (ACY-1035/veh), C12orf56 (ProbeSet 11735607_a_at) / Fold change (Aza/veh), FGFR1OP (ProbeSet 11751329_s_at) / Fold change (ACY-1035/veh), FGFR1OP (ProbeSet 11751329_s_at) / Fold change (Aza/veh), VPS36 (ProbeSet 11739960_a_at) / Fold change (ACY-1035/veh), VPS36 (ProbeSet 11739960_a_at) / RFU SYPL1 (11715823_x_at) / Fold change /veh SYPL1 (11715823_x_at) / RFU IGFBP7 (11715501_s_at) / Fold change /veh IGFBP7 (11715501_s_at) / RFU REEP3 (11722064_at) / Fold change /veh REEP3 (11722064_at) / RFU IGLL1 (11728026_x_at) / Fold change /veh IGLL1 (11728026_x_at): dose or concentration left out as unconfirmed. To be noted: ProbeSet 11733108_at; LIST D.

Molecules are shown by their SMILES.

Consider `Nc1ncn([C@@H]2O[C@H](CO)[C@@H](O)[C@H]2O)c(=O)n1` [azacitidine], for which the “Fold change vs veh, GNAQ” value worked out at 0.77.
